# Assay results taken from patent US7795225B2, “Anti-chrondrosarcoma compounds” (priority 2003, dated 2010).
# Entries after “also recorded” stand apart in the source; their conditions may differ. Where no end group is shown, it is not given here.
# Columns and labels:
# MMP-9 = target: T1, MMP-9 (Homo sapiens, UniProt P14780); experiment: Fluoresceinated collagen hydrolysis assay (fluorescein release); format: biochemical; settings: extended time assay, FIG. 8
# T1 construct: Active MMP-9 enzyme was purchased from Calbiochem; purchased Calbiochem
# T1 sequence (P14780 107-707 limits assumed): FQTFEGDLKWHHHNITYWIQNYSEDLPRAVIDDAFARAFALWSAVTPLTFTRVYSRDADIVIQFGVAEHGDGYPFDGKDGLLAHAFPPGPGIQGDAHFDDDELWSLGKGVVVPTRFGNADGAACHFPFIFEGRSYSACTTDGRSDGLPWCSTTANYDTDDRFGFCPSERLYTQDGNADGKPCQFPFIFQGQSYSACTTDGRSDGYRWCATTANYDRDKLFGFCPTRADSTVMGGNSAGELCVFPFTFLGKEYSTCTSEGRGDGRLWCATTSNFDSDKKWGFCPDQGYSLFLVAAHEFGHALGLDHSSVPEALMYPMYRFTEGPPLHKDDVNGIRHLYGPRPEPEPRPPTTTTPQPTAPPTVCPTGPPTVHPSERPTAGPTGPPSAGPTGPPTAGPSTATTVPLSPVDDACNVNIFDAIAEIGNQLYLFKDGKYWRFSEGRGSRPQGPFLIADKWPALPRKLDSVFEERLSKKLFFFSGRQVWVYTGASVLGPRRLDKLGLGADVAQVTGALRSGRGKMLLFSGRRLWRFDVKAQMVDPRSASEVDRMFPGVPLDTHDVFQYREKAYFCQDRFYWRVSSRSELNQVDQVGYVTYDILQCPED
# Experimental: Two enzymatic assays were performed. The first assay measured the enzymatic hydrolysis of fluoresceinated collagen by MMP-9 as a function of time. […] The protein mixture was added to the collagen substrate, and was quickly mixed. Fluorescence emission intensity at 520 nm was measured as a function of time (excitation wavelength 495 nm) in a Shimadzu RF5301 fluorimeter (Lakowicz, 1983). The fluorescein release assay was used to determine the inhibitory constant (Ki) of the peptide inhibitor ([I]) according to Segel (1993) via the use of Dixon plots (1/v vs. [I]), such that: slope=Km /(V max Ki [S]) (1) where Km is the Michaelis constant, Vmax is the reaction maximum velocity, and [S] is the substrate concentration.
# pro-MMP-9 = pro-MMP-9 (Homo sapiens, UniProt P14780); experiment: Anti-activation (anti-splicing) assay: conversion of pro-MMP-9 by stromilysin, HPLC; format: biochemical; settings: 0.5 and 1.0 μM peptide, FIG. 12
# Chain of pro-MMP-9 (P14780 20-707): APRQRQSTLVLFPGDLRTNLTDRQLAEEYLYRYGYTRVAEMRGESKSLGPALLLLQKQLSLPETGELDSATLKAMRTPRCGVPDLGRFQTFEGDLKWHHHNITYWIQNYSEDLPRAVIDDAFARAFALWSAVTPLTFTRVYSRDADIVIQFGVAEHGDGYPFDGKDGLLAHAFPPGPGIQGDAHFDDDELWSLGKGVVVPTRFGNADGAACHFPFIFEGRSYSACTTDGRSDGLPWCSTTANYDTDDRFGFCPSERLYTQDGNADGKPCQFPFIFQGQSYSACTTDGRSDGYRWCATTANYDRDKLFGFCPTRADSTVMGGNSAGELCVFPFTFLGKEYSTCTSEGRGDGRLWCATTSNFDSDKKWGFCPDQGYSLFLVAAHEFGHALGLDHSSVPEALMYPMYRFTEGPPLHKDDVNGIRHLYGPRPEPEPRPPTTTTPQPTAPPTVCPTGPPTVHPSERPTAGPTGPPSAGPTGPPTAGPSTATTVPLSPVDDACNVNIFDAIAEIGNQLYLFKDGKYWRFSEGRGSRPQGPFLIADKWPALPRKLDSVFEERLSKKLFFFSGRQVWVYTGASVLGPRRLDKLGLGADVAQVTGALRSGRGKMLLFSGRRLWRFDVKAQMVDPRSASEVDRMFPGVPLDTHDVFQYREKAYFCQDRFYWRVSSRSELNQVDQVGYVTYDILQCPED
# Experimental: The assay measured how much proenzyme was converted into mature matrix metalloproteinase. Proenzyme pro-MMP-9 (100 μg) was mixed with 0.5 μg of stromilysin in PBS. The reaction was incubated at 35° C. Aliquots were removed from the reaction over an 80 minute time course. […] The zero (injection) time point was a single peak that elutes from the column in approximately 750 seconds. This peak reduced in size as a function of time, and two new peaks appeared. The first peak eluted at approximately 800 seconds, and represented the mature form of MMP-9. The second peak eluted at approximately 1100 seconds, and corresponded to the N-terminal pro-domain fragment. Peak areas were determined by integrating over the elution profile, and the percent area changes were plotted.
# The first peak, eluting at approximately 700 seconds, is pro-MMP-9. As the splicing reaction proceeds, this peak decreases in intensity (as marked with the downwards arrow), and two new peaks appear. The first new peak, eluting at approximately 800 seconds, is mature and active MMP-9. The second new peak, eluting at approximately 1050 seconds, is the prodomain. As the splicing reaction proceeds, the intensity of these two peaks increases (as marked with the upwards arrows). When the reaction is complete, there is no detectable pro-MMP-9 remaining.
# C57BL6/KsJ db/db mice = experiment: Wound healing in db/db diabetic mice; format: in vivo; settings: single dose 5 μL of 20 μg/mL at day zero, saline control 14 days
# Text: Wounds were created in C57BL6/KsJ db/db mice with a 4 mm biopsy punch. The mice were obtained from The Jackson Laboratories and were aged 3-7 months before the onset of the wounding protocol. All mice were anesthetized prior to wounding. Two wounds were introduced onto the upper back of each animal by pulling the skin away from underlying structures and pushing the punch through the isolated skin. Typically, wounds were created to an average depth of 1.7 mm, with a range of 1.3 to 2.2 mm. No muscle involvement occurred during the course of wounding.
# Each day the wounds were digitally photographed and wound areas were determined by computer integration of the photographs. All wound treatments and the subsequent data analyses were performed in a blind manner (see e.g., Brown et al., 1994). Wound area at the time of wounding (day 0) was arbitrarily set to a relative value of 1 for all wounds; such that subsequent wound areas were converted to relative wound areas by dividing the wound area at day n by the wound area at day zero.
# [1] = tested on: Human chondrosarcoma cells (SW1351); experiment: Chondrosarcoma cell proliferation (CellTiter 96 Aqueous One, absorbance 490 nm); format: cell-based
# Experimental: Human chondrosarcoma cells (SW1351) were purchased from the American Type Culture Collection (ATCC No. HTB-94). A frozen vial of cells was thawed by gentle agitation in a 37° C. water bath for about 2 minutes. The vial was decontaminated with 70% ethanol and the cells were transferred to a T75 flask containing pre-wanned Leibovitz's L-15 medium (ATCC Catalog No. 30-2008) with 10% fetal bovine serum. The culture as incubated at 37° C. until 80% confluence. The culture medium was removed and the cells were dissociated from the T75 flask using 3 ml 0.25% trypsin, 0.03 mM EDTA at 37° C. After incubation for 5 minutes, 8 ml culture medium was added to stop trypsinization. The cells were counted with trypan blue and then seeded in 96 well plates at a density of about 2500 cells/well.
# Six separate cell cultures were tested at each concentration of each peptide (n=6). Control cells received culture medium only.
# Cell cultures were then incubated at 37° C. in an atmosphere of 5% CO2. Cell proliferation was determined after 18 or 72 hr by using the CellTiter 96 Aqueous One Solution purchased from Promega (Catalog No. TB245). Briefly, the CellTiter solution was warmed up to room temperature. Twenty microliters of the solution was added to each well. Cells were incubated at 37° C. for 1-2 hours. The absorbance at 490 nm was then recorded using a 96 well plate reader. The data were statistically analyzed using a Student T test. Differences were considered significant at the level of p<0.05.
Molecule,period of time of effective inhibition of MMP-9 catalyzed hydrolysis of collagen (MMP-9) [min],inhibition of splicing (conversion of pro-MMP-9 into prodomain and active enzyme) (pro-MMP-9),time to full wound closure post wounding (C57BL6/KsJ db/db mice) [days],"chondrosarcoma cell proliferation vs untreated cells ([1]; 18 hours, 10^−4 M, p<0.05)","chondrosarcoma cell proliferation vs untreated cells ([1]; 72 hours, 10^−4 M, p<0.05)","chondrosarcoma cell proliferation vs untreated cells ([1]; 18 hr, three concentrations tested (10^−6, 10^−5, 10^−4 M))","chondrosarcoma cell proliferation vs untreated cells ([1]; 72 hours, 10^−5 M, p<0.05)"
CC(C)[C@H](NC(=O)[C@H](CC(=O)O)NC(=O)[C@@H]1CCCN1C(=O)[C@H](CC(N)=O)NC(=O)CNC(=O)[C@H](CS)NC(=O)[C@H](CCCNC(=N)N)NC(=O)[C@@H]1CCCN1)C(=O)N[C@@H](C)C(=O)N[C@@H](CC(N)=O)C(=O)N[C@@H](Cc1ccc(O)cc1)C(=O)N[C@@H](CC(N)=O)C(=O)N[C@@H](Cc1ccccc1)C(=O)N[C@@H](Cc1ccccc1)C(=O)N1CCC[C@H]1C(=O)N[C@@H](CCCNC(=N)N)C(=O)N[C@@H](CCCCN)C(=O)N1CCC[C@H]1C(=O)N[C@@H](CCCCN)C(=O)O [19-mer],> 1000,inhibited in a dose dependent manner,9,significantly inhibits or depresses growth; also recorded: significantly inhibited,substantially less,–,–
NYNFFPRKPK [10-mer],–,–,–,–,substantially less,did not show any significant effect,–
PRCGNPDVA [9-mer],–,–,–,significantly inhibits or depresses growth; also recorded: significantly inhibited,substantially less,–,significantly reduced
